Earlier results on one compound are cited in US20210023011A1, “METHOD AND SYSTEM FOR PRODUCING HIGH PURITY VANCOMYCIN HYDROCHLORIDE” (ZHEJIANG MEDICINE CO., LTD, priority 2013, published 2021).

For series [1] the following is noted: lyophilized powder.

Where a name gives a salt, the structure may show the parent alone.

Regarding `CN[C@H](CC(C)C)C(=O)N[C@H]1C(=O)N[C@@H](CC(N)=O)C(=O)N[C@H]2C(=O)N[C@H]3C(=O)N[C@H](C(=O)N[C@H](C(=O)O)c4cc(O)cc(O)c4-c4cc3ccc4O)[C@H](O)c3ccc(c(Cl)c3)Oc3cc2cc(c3O[C@@H]2O[C@H](CO)[C@@H](O)[C@H](O)[C@H]2O[C@H]2C[C@](C)(N)[C@H](O)[C@H](C)O2)Oc2ccc(cc2Cl)[C@H]1O` [vancomycin hydrochloride, Vancomycin hydrochloride], in series [1], the solubility in alcohol entry is reported as “slightly soluble” and the solubility in water entry is given as “freely soluble”. Moreover, under “lyophilization at low temperature”, the “decrease of chromatographic purity” value is recorded as no less than 0.5%. Moreover, the “decrease of purity level of the solution” value (vacuum drying at 40° C. within 8 hours) is listed as “more than 1.0%”.
